≈ marks a conversion by molar mass, not a printed value. Where two headings read alike, the source gives them in different places.
Legend:
B-16 melanoma = experiment: Anti-tumor action to B-16 melanoma; format: in vivo, BDF1 female mice; conditions: Mus musculus, B16, 504 h, oral, tumor weight at 21st day, read-out: B-16 melanoma Inhibition ratio
Source text: B-16 melanoma (1×10^5 cells) was transplanted under skin of BDF1 female mice (age of about 5 weeks), and each of testing compounds was orally dosed at 1st, 5th and 9th day after the transplantation. At 21st day after the transplantation, the mice were killed to measure a weight of the cancerous tumor and to finally determine an inhibition ratio.

Acute toxicity = format: in vivo, CrJ/CDI female mice; conditions: mouse, in vivo; oral gavage, suspended in 0.1% P-1570, female mice, 21 days observation
Experimental: (§1) Each of testing compounds suspended in 0.1% P-1570 was orally and forcedly dosed through a gastric probe to CrJ/CDI female mice (21 to 22 g, age of about 5 weeks). An identification number was given to each mouse, and a weighing and observation on general behavior were carried out just before the dosage and each day after the same. Each of died mice was subjected without delay to an autopsy to check the same, more particularly in detail on enterona. All of living mice were killed at 21st day from the dosage to carry out an autopsy for checking the same, more particularly on entrails.
(§2) An LD50 was calculated in accordance with the Leed and Munch's method.
(§3) A similar test was carried out on each controls of 1-[2-[(2-trimethylsilylethyl)thio]ethylcarbamoyl]-5-fluorouracil and 1-hexylcarbamoyl-5-fluorouracil (HCFU) which is one of exemplary anti-tumor agents.

Colon-38 carcinoma = experiment: Anti-tumor action to Colon-38 carcinoma; format: in vivo, BDF1 mice; conditions: Mus musculus, 672 h, oral, tumor weight at 28th day, read-out: colon-38 Inhibition ratio
Experimental: 0.02 ml of 10(W/V)% cell suspension prepared from a solid cancer cell (Colon-38 carcinoma) were transplanted under skin of BDF1 mice (20-21 g, age of about 5 weeks), and each of testing compounds was orally dosed to the mice at 1st, 5th and 9th day after the transplantation. A major and minor axes of the cancerous tumor were measured at 11th, 14th, 21st, 25th and 28th day after the transplantation to calcurate volume of the tumor in accordance with the following.
At 28th day from the transplantation, the mice were killed and each of the cancerous tumors was extracted to measure its weight and to determine an inhibitation ratio in comparison with a non-treated control group.

KB cells = experiment: Suppression of KB cell proliferation in vitro; format: cell-based; conditions: Homo sapiens, 72 h, 3 days exposure, Trypan Blue dye-exclusion, read-out: KB IC50 (50% inhibition density to tumor cell proliferation)
Experimental: In a cultivation device (5% CO2, 37° C.), KB cells (1×10^4 cells) were cultivated for 24 hours in a culture tube with 1 ml of Eagle culture medium added 10% ox serum, the used culture medium was thrown away to change with a fresh culture medium (0.9 ml), and then 0.1 ml of a similar culture fluid containing each testing compound prepared by the process as described in the Examples was added to cultivate the same for further 3 days. Thereafter, living cells were dyed with Tripan Blue and measured same through a dye-exclusion method.
A control was treated in a manner similar to the above, except that a culture fluid containing no compound of the invention was added.
50% inhibition density (IC50) to the tumor cell proliferation was decided through the tests between the testing group and the control group to obtain results as shown in following Table 1.

Lewis lung carcinoma = experiment: Anti-tumor action to Lewis lung carcinoma (primary tumor weight and metastasis); format: in vivo, BDF1 mice; conditions: Mus musculus, po, 504 h
Source text: Lewis lung carcinoma (1×10^5 cells) was transplanted under skin of right ear of BDF1 mice (age of about 5 weeks), and each of testing compounds was orally dosed 10 times from 1st to 10th day after the transplantation. At 21st day after the transplantation, the mice were killed to measure a weight of the primarly tumor and to extract a lung. The lung was fixed in a conventional manner to count a number of metastasis on cancerous cells with use of a stereomicroscope having a low magnification. An anti-tumor action of each compound was expressed with an inhibition in weight of the primarly tumor and an inhibition of the metastasis.

MM-46 adenocarcinoma = experiment: Anti-tumor action to MM-46 adenocarcinoma; format: in vivo, C3H/He female mice; conditions: oral, 250 mg/kg/day × 3 (1st, 5th, 9th day); days to death, testing vs control group
Source text: MM-46 adenocarcinoma (1×10^6 cells) was transplanted under skin of C3H/He female mice (age of about 5 weeks), and each of testing compounds was orally dosed at 1st, 5th and 9th day after the transplantation to check days of life on the mice.
T: days to death on testing group, and
C: days to death on control group.

L-1210 leukemia = experiment: Anti-tumor action to L-1210 leukemia; format: in vivo, BDF1 female mice; conditions: Mus musculus, L1210, oral; for ILS at 250 mg/kg/day: 250 mg/kg/day × 3 (1st, 5th, 9th day); for ILS at 500 mg/kg/day: 500 mg/kg/day × 3 (1st, 5th, 9th day)
Experimental: L-1210 leukemia cell (1×10^5 cells) was transplanted in a abdominal cavity of BDF1 female mice (20-21 g, age of about 5 weeks), and each of testing compounds was orally dosed in 250 mg/kg or 500 mg/kg at 1st, 5th and 9th day after the transplantation to check days of life of the mice. [formula]

CrJ/CDI female mice = experiment: Acute toxicity; format: in vivo; conditions: oral gavage
Experimental: as §1, §2, §3

SMILES: C[Si](C)(C)CCCSCCNC(=O)n1cc(F)c(=O)[nH]c1=O [Example 1, 5-Fluoro-3,4-dihydro-2,4-dioxo-N-[2-[[3-(trimethylsilyl)propyl]thio]ethyl]-1(2H)-pyrimidinecarboxamide]
- inhibition in vivo at 125 mg/kg/day (B-16 melanoma; 125 mg/kg/day × 3): 25.8%
- inhibition in vivo at 250 mg/kg/day (B-16 melanoma; 250 mg/kg/day × 3): 73.8%
- LD50 at 504 h (Acute toxicity): 1580 mg/kg
- inhibition in vivo at 278 mg/kg/day (Colon-38 carcinoma; 278 mg/kg/day × 3): 95.2%
- IC50 (KB cells): 20 µg/mL (≈ 57.6 µM)
- inhibition in vivo at 13 mg/kg/day (Lewis lung carcinoma; 13 mg/kg/day × 10 + Amputation, 21st day, read-out: Inhibition Ratio weight LLC): 33.2%
- inhibition in vivo at 13 mg/kg/day (Lewis lung carcinoma; 13 mg/kg/day × 10 + Amputation, lung, 21st day, printed in parentheses, read-out: Inhibition Ratio metastasis): 26.6%
- inhibition in vivo at 13 mg/kg/day (Lewis lung carcinoma; 13 mg/kg/day × 10, 21st day, read-out: Inhibition Ratio weight LLC): 0%
- inhibition in vivo at 13 mg/kg/day (Lewis lung carcinoma; 13 mg/kg/day × 10, lung, 21st day, read-out: Inhibition Ratio metastasis): 50.9%
- inhibition in vivo at 26 mg/kg/day (Lewis lung carcinoma; 26 mg/kg/day × 10 + Amputation, 21st day, read-out: Inhibition Ratio weight LLC): 59.8%
- inhibition in vivo at 26 mg/kg/day (Lewis lung carcinoma; 26 mg/kg/day × 10 + Amputation, lung, 21st day, printed in parentheses, read-out: Inhibition Ratio metastasis): > 63%
- inhibition in vivo at 26 mg/kg/day (Lewis lung carcinoma; 26 mg/kg/day × 10, 21st day, read-out: Inhibition Ratio weight LLC): 51.1%
- inhibition in vivo at 26 mg/kg/day (Lewis lung carcinoma; 26 mg/kg/day × 10, lung, 21st day, read-out: Inhibition Ratio metastasis): 79.2%
- inhibition in vivo at 52 mg/kg/day (Lewis lung carcinoma; 52 mg/kg/day × 10, 21st day, read-out: Inhibition Ratio weight LLC): 31.1%
- inhibition in vivo at 52 mg/kg/day (Lewis lung carcinoma; 52 mg/kg/day × 10, lung, 21st day, read-out: Inhibition Ratio metastasis): 95.7%
- MM-46 adenocarcinoma T/C × 100 (MM-46 adenocarcinoma): 181%
- ILS at 250 mg/kg/day (L-1210 leukemia; read-out: L-1210 ILS): 28%
- ILS at 250 mg/kg/day (L-1210 leukemia; read-out: L-1210 Judgement): 25 to 50%
- ILS at 500 mg/kg/day (L-1210 leukemia; read-out: L-1210 ILS): 98%
- ILS at 500 mg/kg/day (L-1210 leukemia; read-out: L-1210 Judgement): 50 to 100%

SMILES: CCCCCCNC(=O)n1cc(F)c(=O)[nH]c1=O [HCFU, 1-hexylcarbamoyl-5-fluorouracil, reference compound]
- LD50 (CrJ/CDI female mice; suspended in 0.1% P-1570, female mice, 21 days observation): 1250 mg/kg

SMILES: C[Si](C)(CCSCCNC(=O)n1cc(F)c(=O)[nH]c1=O)c1ccccc1 [Example 3, N-[2-[[2-(Dimethylphenylsilyl)ethyl]thio]ethyl]-5-fluoro-3,4-dihydro-2,4-dioxo-1(2H)-pyrimidinecarboxamide]
- inhibition in vivo at 300 mg/kg/day (B-16 melanoma; 300 mg/kg/day × 3): 62%
- LD50 at 504 h (Acute toxicity): 1500 mg/kg
- inhibition in vivo at 315 mg/kg/day (Colon-38 carcinoma; 315 mg/kg/day × 3): 82.1%
- IC50 (KB cells): 12 µg/mL (≈ 30.3 µM)
- inhibition in vivo at 29.5 mg/kg/day (Lewis lung carcinoma; 29.5 mg/kg/day × 10, 21st day, read-out: Inhibition Ratio weight LLC): 20.7%
- inhibition in vivo at 29.5 mg/kg/day (Lewis lung carcinoma; 29.5 mg/kg/day × 10, lung, 21st day, read-out: Inhibition Ratio metastasis): 57.5%
- inhibition in vivo at 59 mg/kg/day (Lewis lung carcinoma; 59 mg/kg/day × 10, 21st day, read-out: Inhibition Ratio weight LLC): 0%
- inhibition in vivo at 59 mg/kg/day (Lewis lung carcinoma; 59 mg/kg/day × 10, lung, 21st day, read-out: Inhibition Ratio metastasis): 95.1%
- MM-46 adenocarcinoma T/C × 100 (MM-46 adenocarcinoma): 205%
- ILS at 250 mg/kg/day (L-1210 leukemia; read-out: L-1210 ILS): 38%
- ILS at 250 mg/kg/day (L-1210 leukemia; read-out: L-1210 Judgement): 25 to 50%
- ILS at 500 mg/kg/day (L-1210 leukemia; read-out: L-1210 ILS): 82%
- ILS at 500 mg/kg/day (L-1210 leukemia; read-out: L-1210 Judgement): 50 to 100%

SMILES: C[Si](C)(C)CCSCCNC(=O)n1cc(F)c(=O)[nH]c1=O [1-[2-[(2-trimethylsilylethyl)thio]ethylcarbamoyl]-5-fluorouracil, reference compound]
- LD50 at 504 h (Acute toxicity): 1100 mg/kg
- autopsy findings (ulcer and laxative feces) (CrJ/CDI female mice; female mice): an ulcer and laxative feces
- spasm (general behavior) (CrJ/CDI female mice; female mice): a spasm was observed in some mice

Source: US4778797A, “Organo-silicon compounds, process for the manufacture of same, and anti-tumor agent comprising the compound” (Sanwa Kagaku Kenkyusho Co., Ltd., priority 1984, dated 1988)
